Data taken from ChEMBL document CHEMBL1275354, “Anticonvulsant activity of 2,4(1H)-diarylimidazoles in mice and rats acute seizure models” (Bioorg Med Chem, 2010).
The source made the active and inactive calls.

Key:
[1] = test system: Mus musculus; assay: Anticonvulsant activity against maximal electroshock-induced seizures in ip dosed albino CF1 mouse assessed as minimum effective dose after 0.5 hrs; assay type: functional; conditions: read-out: MED
[2] = test system: Mus musculus; assay: Neurotoxicity in albino CF1 mouse assessed as minimal motor impairment at 30 mg/kg, ip after 0.5 hrs by rotarod test; assay type: toxicity, organism-based; design: dose 30 mg/kg, route intraperitoneal; conditions: in vivo
[3] = test system: Mus musculus; assay: Neurotoxicity in albino CF1 mouse assessed as minimal motor impairment at 10 mg/kg, ip after 0.5 hrs by rotarod test; assay type: toxicity, organism-based; design: dose 10 mg/kg, route intraperitoneal; conditions: in vivo
[4] = test system: Mus musculus; assay: Anticonvulsant activity in albino CF1 mouse assessed as protection against subcutaneous metrazole-induced seizures at 30 mg/kg, ip after 0.5 hrs; assay type: functional, organism-based; design: dose 30 mg/kg
[5] = test system: Mus musculus; assay: Anticonvulsant activity against subcutaneous metrazole-induced seizures in ip dosed albino CF1 mouse assessed as minimum effective dose after 0.5 hrs; assay type: functional; conditions: albino CF1, 0.5 h, read-out: MED
[6] = test system: Mus musculus; assay: Anticonvulsant activity in albino CF1 mouse assessed as protection against subcutaneous metrazole-induced seizures at 100 mg/kg, ip after 4 hrs; assay type: functional, organism-based; design: dose 100 mg/kg
[7] = test system: Mus musculus; assay: Neurotoxicity in ip dosed albino CF1 mouse assessed as minimum dose required to cause toxicity after 0.5 hrs by rotarod test; assay type: organism-based; conditions: in vivo
[8] = test system: Mus musculus; assay: Neurotoxicity in albino CF1 mouse assessed as minimal motor impairment at 30 to 300 mg/kg, ip after 4 hrs by rotarod test; conditions: in vivo
[9] = test system: Mus musculus; assay: Neurotoxicity in albino CF1 mouse assessed as minimal motor impairment at 30 to 300 mg/kg, ip after 0.5 hrs by rotarod test; conditions: in vivo
[10] = test system: Mus musculus; assay: Anticonvulsant activity in albino CF1 mouse assessed as protection against subcutaneous metrazole-induced seizures at 300 mg/kg, ip after 0.5 hrs; assay type: functional, organism-based; design: dose 300 mg/kg
[11] = test system: Mus musculus; assay: Anticonvulsant activity in albino CF1 mouse assessed as protection against subcutaneous metrazole-induced seizures at 300 mg/kg, ip after 4 hrs; assay type: functional, organism-based; design: dose 300 mg/kg
[12] = test system: Mus musculus; assay: Anticonvulsant activity in albino CF1 mouse assessed as protection against maximal electroshock-induced seizures at 30 mg/kg, ip after 0.5 hrs; assay type: functional, organism-based; design: dose 30 mg/kg
[13] = test system: Mus musculus; assay: Anticonvulsant activity in albino CF1 mouse assessed as protection against maximal electroshock-induced seizures at 300 mg/kg, ip after 0.5 hrs; assay type: functional, organism-based; design: dose 300 mg/kg
[14] = test system: Mus musculus; assay: Anticonvulsant activity in albino CF1 mouse assessed as protection against subcutaneous metrazole-induced seizures at 100 mg/kg, ip after 0.5 hrs; assay type: functional, organism-based; design: dose 100 mg/kg
[15] = test system: Mus musculus; assay: Anticonvulsant activity in albino CF1 mouse assessed as protection against maximal electroshock-induced seizures at 3 mg/kg, ip after 0.5 hrs; assay type: functional, organism-based; design: dose 3 mg/kg
[16] = test system: Mus musculus; assay: Anticonvulsant activity in albino CF1 mouse assessed as protection against maximal electroshock-induced seizures at 300 mg/kg, ip after 4 hrs; assay type: functional, organism-based; design: dose 300 mg/kg
[17] = test system: Mus musculus; assay: Anticonvulsant activity against subcutaneous metrazole-induced seizures in ip dosed albino CF1 mouse assessed as minimum effective dose after 4 hrs; assay type: functional; conditions: albino CF1, 4 h, read-out: MED
[18] = test system: Mus musculus; assay: Neurotoxicity in albino CF1 mouse assessed as minimal motor impairment at 30 mg/kg, ip after 4 hrs by rotarod test; assay type: toxicity, organism-based; design: dose 30 mg/kg, route intraperitoneal; conditions: in vivo
[19] = test system: Mus musculus; assay: Neurotoxicity in albino CF1 mouse assessed as minimal motor impairment at 100 mg/kg, ip after 4 hrs by rotarod test; assay type: toxicity, organism-based; design: dose 100 mg/kg, route intraperitoneal; conditions: in vivo
[20] = test system: Mus musculus; assay: Anticonvulsant activity against maximal electroshock-induced seizures in ip dosed albino CF1 mouse assessed as minimum effective dose after 4 hrs; assay type: functional; conditions: read-out: MED
[21] = test system: Mus musculus; assay: Anticonvulsant activity in albino CF1 mouse assessed as protection against maximal electroshock-induced seizures at 30 mg/kg, ip after 4 hrs; assay type: functional, organism-based; design: dose 30 mg/kg
[22] = test system: Mus musculus; assay: Anticonvulsant activity in albino CF1 mouse assessed as protection against subcutaneous metrazole-induced seizures at 30 mg/kg, ip after 4 hrs; assay type: functional, organism-based; design: dose 30 mg/kg
[23] = test system: Mus musculus; assay: Anticonvulsant activity in albino CF1 mouse assessed as protection against maximal electroshock-induced seizures at 10 mg/kg, ip after 0.5 hrs; assay type: functional, organism-based; design: dose 10 mg/kg
[24] = test system: Mus musculus; assay: Neurotoxicity in albino CF1 mouse assessed as minimal motor impairment at 3 mg/kg, ip after 0.5 hrs by rotarod test; assay type: toxicity, organism-based; design: dose 3 mg/kg, route intraperitoneal; conditions: in vivo
[25] = test system: Mus musculus; assay: Neurotoxicity in ip dosed albino CF1 mouse assessed as minimum dose required to cause toxicity after 4 hrs by rotarod test; assay type: organism-based; conditions: in vivo
[26] = test system: Mus musculus; assay: Anticonvulsant activity in albino CF1 mouse assessed as protection against subcutaneous metrazole-induced seizures at 70 mg/kg, ip after 0.25 hrs; assay type: functional, organism-based; design: dose 70 mg/kg
[27] = test system: Rattus norvegicus; assay: Anticonvulsant activity in albino Sprague-Dawley rat assessed as protection against maximal electroshock-induced seizures at 30 mg/kg, po after 2 hrs; assay type: functional, organism-based; design: dose 30 mg/kg
[28] = test system: Mus musculus; assay: Neurotoxicity in albino CF1 mouse assessed as minimal motor impairment at 30 to 300 mg/kg, po after 4 hrs by rotarod test; assay type: toxicity, organism-based; design: dose 30-300 mg/kg, route oral; conditions: in vivo
[29] = test system: Mus musculus; assay: Neurotoxicity in ip dosed albino CF1 mouse assessed as minimal motor impairment after 0.25 hrs by rotarod test; assay type: toxicity, organism-based; conditions: in vivo
[30] = test system: Mus musculus; assay: Anticonvulsant activity in albino CF1 mouse assessed as protection against maximal electroshock-induced seizures at 35 mg/kg, ip after 0.25 hrs; assay type: functional, organism-based; design: dose 35 mg/kg
[31] = test system: Mus musculus; assay: Anticonvulsant activity ip dosed albino CF1 mouse assessed as protection against subcutaneous metrazole-induced seizures after 0.25 hrs; assay type: functional; conditions: albino CF1, 0.25 h
[32] = test system: Mus musculus; assay: Neurotoxicity in albino CF1 mouse assessed as minimal motor impairment at 300 mg/kg, ip after 4 hrs by rotarod test; assay type: toxicity, organism-based; design: dose 300 mg/kg, route intraperitoneal; conditions: in vivo
[33] = test system: Mus musculus; assay: Anticonvulsant activity ip dosed albino CF1 mouse assessed as protection against maximal electroshock-induced seizures after 0.25 hrs; assay type: functional
[34] = test system: Rattus norvegicus; assay: Anticonvulsant activity in albino Sprague-Dawley rat assessed as protection against maximal electroshock-induced seizures at 30 mg/kg, po after 0.25 hrs; assay type: functional, organism-based; design: dose 30 mg/kg
[35] = test system: Rattus norvegicus; assay: Anticonvulsant activity in albino Sprague-Dawley rat assessed as protection against maximal electroshock-induced seizures at 30 mg/kg, po after 0.5 hrs; assay type: functional, organism-based; design: dose 30 mg/kg
[36] = test system: Mus musculus; assay: Neurotoxicity in albino CF1 mouse assessed as minimal motor impairment at 100 mg/kg, ip after 0.5 hrs by rotarod test; assay type: toxicity, organism-based; design: dose 100 mg/kg, route intraperitoneal; conditions: in vivo
[37] = test system: Mus musculus; assay: Protective index, ratio of TD50 for albino CF1 mouse by rotarod test to ED50 for albino CF1 mouse by subcutaneous metrazol seizures test; assay type: functional
[38] = test system: Rattus norvegicus; assay: Anticonvulsant activity in albino Sprague-Dawley rat assessed as protection against maximal electroshock-induced seizures at 30 mg/kg, po after 4 hrs; assay type: functional, organism-based; design: dose 30 mg/kg
[39] = species on record: Mus musculus; assay: Protective index, ratio of TD50 for albino CF1 mouse by rotarod test to ED50 for albino CF1 mouse by maximal electroshock seizures test; assay type: functional
[40] = test system: Rattus norvegicus; assay: Neurotoxicity in albino Sprague-Dawley rat assessed as minimal motor impairment at 30 mg/kg, po by rotarod test; assay type: toxicity, organism-based; design: dose 30 mg/kg, route oral; conditions: in vivo
[41] = biological target: Sodium channel protein type 2 subunit alpha (Homo sapiens, UniProt Q99250); assay: Inhibition of human NaV1.2 expressed in HEK cells at -60 mV holding potential by patch clamp recording technique; assay type: cell-based, HEK293
[42] = test system: Mus musculus; assay: Anticonvulsant activity in albino CF1 mouse assessed as protection against maximal electroshock-induced seizures at 100 mg/kg, ip after 0.5 hrs; assay type: functional, organism-based; design: dose 100 mg/kg
[43] = test system: Mus musculus; assay: Anticonvulsant activity in albino CF1 mouse assessed as protection against maximal electroshock-induced seizures at 70 mg/kg, ip after 0.25 hrs; assay type: functional, organism-based; design: dose 70 mg/kg
[44] = test system: Mus musculus; assay: Neurotoxicity in albino CF1 mouse assessed as minimal motor impairment at 70 mg/kg, ip after 0.25 hrs by rotarod test; assay type: toxicity, organism-based; design: dose 70 mg/kg, route intraperitoneal; conditions: in vivo
[45] = test system: Mus musculus; assay: Neurotoxicity in albino CF1 mouse assessed as minimal motor impairment at 350 mg/kg, ip after 0.25 hrs by rotarod test; assay type: toxicity, organism-based; design: dose 350 mg/kg, route intraperitoneal; conditions: in vivo
[46] = test system: Mus musculus; assay: Neurotoxicity in albino CF1 mouse assessed as minimal motor impairment at 300 mg/kg, ip after 0.5 hrs by rotarod test; assay type: toxicity, organism-based; design: dose 300 mg/kg, route intraperitoneal; conditions: in vivo

Sodium channel protein type 2 subunit alpha, sequence (Q99250 whole entry): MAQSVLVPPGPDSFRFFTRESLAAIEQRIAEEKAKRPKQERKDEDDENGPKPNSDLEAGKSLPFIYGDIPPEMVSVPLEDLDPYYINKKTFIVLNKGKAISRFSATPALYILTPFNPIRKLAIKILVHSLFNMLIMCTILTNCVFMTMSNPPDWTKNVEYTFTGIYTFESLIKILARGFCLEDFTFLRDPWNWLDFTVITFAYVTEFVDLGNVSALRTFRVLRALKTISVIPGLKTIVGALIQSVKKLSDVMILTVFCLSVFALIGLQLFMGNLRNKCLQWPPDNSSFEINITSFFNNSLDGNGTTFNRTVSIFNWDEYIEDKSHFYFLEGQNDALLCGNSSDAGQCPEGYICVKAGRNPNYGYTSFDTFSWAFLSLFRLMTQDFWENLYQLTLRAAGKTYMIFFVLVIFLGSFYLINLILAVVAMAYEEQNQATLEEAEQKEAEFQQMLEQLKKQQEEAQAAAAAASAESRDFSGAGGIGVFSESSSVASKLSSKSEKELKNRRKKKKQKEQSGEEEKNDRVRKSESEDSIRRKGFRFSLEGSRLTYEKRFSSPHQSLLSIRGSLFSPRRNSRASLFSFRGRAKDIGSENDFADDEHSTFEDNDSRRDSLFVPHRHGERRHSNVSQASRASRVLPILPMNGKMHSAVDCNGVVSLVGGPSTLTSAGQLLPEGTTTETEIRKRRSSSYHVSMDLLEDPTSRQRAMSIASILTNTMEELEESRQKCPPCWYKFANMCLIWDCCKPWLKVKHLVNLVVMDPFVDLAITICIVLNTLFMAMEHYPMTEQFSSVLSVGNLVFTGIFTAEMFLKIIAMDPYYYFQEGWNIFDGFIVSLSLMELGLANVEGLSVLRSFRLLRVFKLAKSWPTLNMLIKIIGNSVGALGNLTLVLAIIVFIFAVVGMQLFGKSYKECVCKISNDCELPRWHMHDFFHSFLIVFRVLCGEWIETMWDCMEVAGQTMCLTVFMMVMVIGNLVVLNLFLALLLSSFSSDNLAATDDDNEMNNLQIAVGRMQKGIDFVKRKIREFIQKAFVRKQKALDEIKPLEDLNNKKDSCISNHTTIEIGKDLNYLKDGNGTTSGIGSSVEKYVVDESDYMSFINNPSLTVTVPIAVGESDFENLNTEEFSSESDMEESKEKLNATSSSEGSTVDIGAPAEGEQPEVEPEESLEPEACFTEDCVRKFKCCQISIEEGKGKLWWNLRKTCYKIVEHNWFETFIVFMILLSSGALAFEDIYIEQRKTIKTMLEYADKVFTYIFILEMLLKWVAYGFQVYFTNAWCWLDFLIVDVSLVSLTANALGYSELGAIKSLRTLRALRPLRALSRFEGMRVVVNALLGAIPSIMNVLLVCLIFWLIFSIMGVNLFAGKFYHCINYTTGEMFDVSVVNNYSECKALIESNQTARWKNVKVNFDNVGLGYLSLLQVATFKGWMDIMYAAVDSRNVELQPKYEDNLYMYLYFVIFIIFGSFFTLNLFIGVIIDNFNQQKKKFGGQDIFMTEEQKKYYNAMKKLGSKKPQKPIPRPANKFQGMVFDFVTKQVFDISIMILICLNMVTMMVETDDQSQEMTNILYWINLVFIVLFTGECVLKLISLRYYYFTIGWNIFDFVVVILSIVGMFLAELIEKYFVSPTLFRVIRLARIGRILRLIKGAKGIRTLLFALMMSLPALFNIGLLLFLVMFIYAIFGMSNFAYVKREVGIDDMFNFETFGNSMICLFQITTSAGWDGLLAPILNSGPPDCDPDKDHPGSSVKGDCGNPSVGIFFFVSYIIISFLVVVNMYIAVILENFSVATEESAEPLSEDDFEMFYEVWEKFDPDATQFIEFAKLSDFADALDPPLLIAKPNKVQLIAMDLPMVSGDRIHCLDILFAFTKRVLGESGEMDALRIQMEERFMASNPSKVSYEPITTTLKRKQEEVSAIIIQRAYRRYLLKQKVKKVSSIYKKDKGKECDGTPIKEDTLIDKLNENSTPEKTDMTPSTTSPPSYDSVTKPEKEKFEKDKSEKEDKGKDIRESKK

FC(F)(F)c1cccc(-c2c[nH]c(-c3ccccc3)n2)c1
100 mg/kg: MED [7] | minimal effective dose [20] | MED [25]
inactive: Activity [4] | Activity [6] | Activity [10] | Activity [11] | Activity [14] | Activity [15] | Activity [21] | Activity [22] | Activity [23]
active: Activity [12] | Activity [13] | Activity [16]
> 300 mg/kg: minimal effective dose [5] | minimal effective dose [17]
Non-toxic: Activity [2] | Activity [3] | Activity [8] | Activity [9] | Activity [18] | Activity [19] | Activity [24]
> 30 mg/kg: minimal effective dose [1]

COc1ccc(-c2nc(-c3ccccc3)c[nH]2)cc1
> 30 mg/kg: minimal effective dose [1]
100 mg/kg: minimal effective dose [5] | MED [7] | minimal effective dose [20] | MED [25]
46.8 mg/kg: ED50 [33]
4.3: PI [39]
Toxic: Activity [32] | Activity [45] | Activity [46]
21.4 µM: IC50 [41]
142 mg/kg: ED50 [31]
Non-toxic: Activity [28] | Activity [2] | Activity [9] | Activity [36] | Activity [18] | Activity [19] | Activity [40] | Activity [44]
> 300 mg/kg: minimal effective dose [17]
inactive: Activity [26] | Activity [27] | Activity [30] | Activity [4] | Activity [6] | Activity [34] | Activity [35] | Activity [11] | Activity [12] | Activity [14] | Activity [38] | Activity [21] | Activity [22]
1.4: PI [37]
200.8 mg/kg: TD50 [29]
active: Activity [10] | Activity [13] | Activity [16] | Activity [42] | Activity [43]
